Data on two molecules can be found in US20250082702A1, “ANTICANCER COMPOSITION COMPRISING RECOMBINANT ADENOVIRUS EXPRESSING DEGRADATION FACTOR FOR EXTRACELLULAR MATRIX” (priority 2016, published 2025).

The subject of experiment [1] is MIA PaCa-2. Kind of experiment: Pancreatic cancer subcutaneous animal model. The format is in vivo, mice. The settings on record: MIA PaCa-2 subcutaneous; RdB/IL-12/RLX intratumoral, gemcitabine 10 mg/kg. How it is done:
(§1) It was intended to verify the anti-tumor effect by the co-administration of RdB/IL-12/RLX and gemcitabine in a pancreatic cancer subcutaneous animal model. The formation of tumors was induced by injecting PANC-1, MIA PaCa-2, or BxPC-3 cells subcutaneously into mice, a change in size of tumors was observed while RdB/IL-12/RLX was administered alone or RdB/IL-12/RLX was administered (administered intratumorally) in combination with gemcitabine (10 mg/kg). Meanwhile, a PBS only administration group was used as a negative control.

Experiment [2] deals with PANC-1. Kind of experiment: Pancreatic cancer subcutaneous animal model. It counts as in vivo, mice. The settings on record: PANC-1 subcutaneous; RdB/IL-12/RLX intratumoral, gemcitabine 10 mg/kg. Here is the method:
as §1

For a further experiment, the system named is BxPC-3. Kind of experiment: Pancreatic cancer subcutaneous animal model. The format is in vivo, mice. Particulars: BxPC-3 subcutaneous; RdB/IL-12/RLX intratumoral, gemcitabine 10 mg/kg. Here is the method:
as §1

Experiment [3] concerns MIA PaCa-2. Kind of experiment: MTT assay, RdB/IL-12/DCN with gemcitabine. It counts as cell-based, human. Particulars: gemcitabine alone at 100 μg/ml. Here is the method:
(§2) For this purpose, human pancreatic cancer cell lines PANC-1, MIA PaCa-2, and AsPC-1 were infected with RdB/IL-12/DCN of the present invention at a MOI of 0.5 or 2, and treated together with gemcitabine (0.05, 0.2, 1, 2, 5, 20, or 100 μg/ml), and then the degree of apoptosis was observed through MTT assay.

For experiment [4], the system named is PANC-1. The experiment in a line: MTT assay, RdB/IL-12/DCN with gemcitabine. The format is cell-based, human. Particulars: gemcitabine alone at 100 μg/ml. Here is the method: as §2
(In general: Formazan colour is commonly taken as a measure of viable cells.)

The test system of the next experiment is AsPC-1. Kind of experiment: MTT assay, RdB/IL-12/DCN with gemcitabine. It counts as cell-based, human. Particulars: gemcitabine alone at 100 μg/ml. How it is done: as §2
Experiment [5] deals with MIA PaCa-2-Fluc. Kind of experiment: Histological evaluation of orthotopic pancreatic tumors (H&E, PCNA, TUNEL, E1A). The format is in vivo, mouse. Particulars: orthotopic MIA PaCa-2-Fluc tumor tissue. Here is the method: It was intended to histologically evaluate the anti-tumor effect of the aforementioned experiments. First, the formation of tumors was induced by injecting a human pancreatic cancer cell line MIA PaCa-2-Fluc into the mouse pancreas, and then PBS, gemcitabine, RdB/IL-12/DCN, or gemcitabine+RdB/IL-12/DCN was each administered thereto. Thereafter, hematoxylin-eosin (H & E) staining and PCNA immunohistological staining were performed after collecting the tumor tissues. Further, a TUNEL assay was performed in order to confirm the degree of apoptosis of tumor cells, and immunohistological staining using an antibody against an E1A protein of the adenovirus was performed in order to confirm whether the anti-tumor effect was caused by the replication of the adenovirus present in tumor tissues.

Experiment [6] deals with MIA PaCa-2-Fluc. Kind of experiment: Orthotopic pancreatic cancer animal model, change in size of tumor (IVIS). The settings on record: IVIS imaging; combination: week 1 and 2; RdB/IL-12/DCN 2×10^10 VP i.p. three times, gemcitabine 100 mg/kg twice weekly for 3 weeks. The format is in vivo, mouse. Here is the method:
In order to construct an orthotopic pancreatic cancer animal model, a human pancreatic cancer cell line MIA PaCa-2-Fluc was selected and used in the experiment. Tumor cells were injected into the mouse pancreas, and two weeks later, the production of tumors was confirmed through an IVIS imaging machine. Thereafter, RdB/IL-12/DCN was intraperitoneally administered three times at 2×10^10 VP/500 μL every two days, and gemcitabine was administered twice weekly at 100 mg/kg for a total of 3 weeks. Meanwhile, a PBS only administration group was used as a negative control. Before RdB/IL-12/DCN was administered, the size and photon values of tumors were confirmed using the IVIS imaging machine, and at week 1, 2, and 3 after the administration, the changes in size of tumors were quantitatively compared.

Experiment [7] relates to MIA PaCa-2. The experiment in a line: Pancreatic cancer xenograft animal model, extracellular matrix and apoptosis. The format is in vivo, mice. The settings on record: RdB/IL-12/RLX 2×10^6 pfu, gemcitabine 1.5 mg/kg. How it is done: In order to construct a pancreatic cancer xenograft animal model, 5×10^5 of MIA PaCa-2 were injected subcutaneously into mice, and then when the size of tumors reached 50 to 100 mm^3, a change in extracellular matrix and an apoptosis effect were observed while 2×10^6 pfu of RdB/IL-12/RLX were administered alone or administered in combination with 1.5 mg/kg of gemcitabine. During the co-administration, RdB/IL-12/RLX was intratumorally administered three times in total at an interval of 2 days, and gemcitabine was intraperitoneally administered once. Thereafter, immunohistological staining and hematoxylin-eosin (H & E) staining were performed, and in order to confirm the degree of apoptosis, a TUNEL assay and cleaved caspase 3 immunostaining were performed. Meanwhile, a PBS only administration group was used as a negative control.

Another experiment deals with B16-F10. The experiment in a line: Animal model with induced resistance to anticancer agent (taxol), RdB/IL-12/DCN. It counts as in vivo, C57BL/6 mice. Particulars: day 16 (15 days after first taxol administration); taxol 10 mg/kg i.p., RdB/IL-12/DCN 5×10^5 VP, αPD-1 200 μg. How it is done: Under the conditions where the anti-tumor effect caused by an anticancer agent is insignificant due to the resistance to the anticancer agent, and the like, it was intended to verify an in vivo anti-tumor effect by the co-administration of RdB/IL-12/DCN and the immune checkpoint inhibitor (an anti PD-1 antibody; αPD-1). After a B16-F10 mouse melanoma cell line was injected (5×10^5 cells) subcutaneously into the flank of C57BL/6 mice, taxol (day 1, 2, and 3; 10 mg/kg) was injected intraperitoneally into the formed tumor (day 1, about 50 mm^3), and after RdB/IL-12/DCN was administered alone (day 3, 5, 7, and 9; 5×10^5 VP), αPD-1 was administered alone (day 4, 7, 8, and 10; 200 μg), or RdB/IL-12/DCN and αPD-1 were co-administered (under the same conditions, respectively), the growth of tumors was observed. Meanwhile, a PBS only administration group was used as a negative control.

On to `Nc1ccn([C@@H]2O[C@H](CO)[C@@H](O)C2(F)F)c(=O)n1` [gemcitabine], for which the “change in size of tumors” value with MIA PaCa-2 [1] was “sharp increase in size of tumors”; in the experiment on PANC-1 [2], “sharp increase in size of tumors”; in the experiment with BxPC-3, “sharp increase in size of tumors”; in the experiment on MIA PaCa-2-Fluc [6] it was “sharp increases in size of tumors”. Moreover, the “ability to kill the pancreatic cancer cell lines (MTT assay)” value in the experiment with MIA PaCa-2 [3], with PANC-1 [4] and in the experiment with AsPC-1 was “at most 30%” throughout. Further, in the experiment with MIA PaCa-2-Fluc [5], the “necrosis of cells in tumors (H & E staining)” value is given as “hardly observed”. The “necrosis or apoptosis of cells in tumors (H & E, TUNEL, cleaved caspase 3)” value in the experiment on MIA PaCa-2 [7] was “almost hardly proceeded or was insignificant”.
For the molecule `CC(=O)O[C@H]1C(=O)[C@@]2(C)[C@H]([C@H](OC(=O)c3ccccc3)[C@]3(O)C[C@H](OC(=O)[C@H](O)[C@@H](NC(=O)c4ccccc4)c4ccccc4)C(C)=C1C3(C)C)[C@]1(OC(C)=O)CO[C@@H]1C[C@@H]2O` [taxol], in the experiment with B16-F10, the size of tumors was determined as 5394.5±288.2 mm^3.
